Experimental data reported in ChEMBL document CHEMBL1138704, “Farnesyl protein transferase inhibitors targeting the catalytic zinc for enhanced binding” (Bioorg Med Chem Lett, 2004).
Values joined by “and” are separate entries in the source; they are usually repeats but may differ in a detail not shown here. Identical values can stand only once.

Key:
[1] = molecular target: T1, Protein farnesyltransferase (Homo sapiens) (UniProt P49354+P49356); assay: Percent inhibition of [3H]FPP incorporation into H-ras CVLS by farnesyltransferase at 1.1 uM; type: protein-complex assay
[2] = molecular target: T1, Protein farnesyltransferase (Homo sapiens); assay: Inhibition of [3H]FPP incorporation into H-ras CVLS by farnesyltransferase; type: protein-complex assay
[3] = molecular target: T1, Protein farnesyltransferase (Homo sapiens); assay: Percent inhibition of [3H]FPP incorporation into H-ras CVLS by farnesyltransferase at 0.4 uM; type: protein-complex assay
[4] = Inhibition of [3H]-FPP incorporation into H-ras CVLS by farnesyltransferase

Compound | inhibition [1] | IC50 [4] | also measured
O=C(NCc1ccncc1)[C@@H]1CCCCN1C1c2ccc(Cl)cc2CCc2cc(Br)cnc21 (stereo partly specified) | 0% and 13% |  | 
O=C(NCc1cccnc1)[C@@H]1CCCCN1C1c2ccc(Cl)cc2CCc2cc(Br)cnc21 (stereo partly specified) |  |  | Inhibitory activity [2]: 0.3 µM and 0.16 µM
O=C(NCc1cccnc1)[C@H]1CCCCN1C1c2ccc(Cl)cc2CCc2cc(Br)cnc21 (stereo partly specified) |  |  | inhibition [3]: 0.4% and 11%
O=C(NCc1ccncc1)[C@H]1CCCCN1C1c2ccc(Cl)cc2CCc2cc(Br)cnc21 (stereo partly specified) | 18% and 27% |  | 
NC(=O)N1CCC(CC(=O)N2CCC([C@H]3c4ncc(Br)cc4CCc4cc(Cl)cc(Br)c43)CC2)CC1 [LONAFARNIB] |  | 2 nM | 
O=C(NCCCn1ccnc1)[C@@H]1CCCCN1C1c2ncc(Br)cc2CCc2cc(Cl)cc(Br)c21 (stereo partly specified) |  | 0.9 nM and 0.4 nM | 
